These results are taken from ChEMBL document CHEMBL1134503, “Synthesis, antifolate, and antitumor activities of classical and nonclassical 2-amino-4-oxo-5-substituted-pyrrolo[2,3-d]pyrimidines” (J Med Chem, 2001).

A word on the IC50: it is the concentration at which inhibition is half-maximal. Higher therefore signals weaker potency. In general, EC50 refers to the concentration giving half of the maximal effect.

The target of experiment [1] is Dihydrofolate reductase; T. gondii vs rat (Toxoplasma gondii) (UniProt Q920D2+Q07422). The experiment is described as follows: Ratio of binding to rat liver and Toxoplasma gondii dihydrofolate reductase.
The target in experiment [2] is T1, Dihydrofolate reductase (Pneumocystis carinii, UniProt P16184).
T1 sequence (P16184 whole entry): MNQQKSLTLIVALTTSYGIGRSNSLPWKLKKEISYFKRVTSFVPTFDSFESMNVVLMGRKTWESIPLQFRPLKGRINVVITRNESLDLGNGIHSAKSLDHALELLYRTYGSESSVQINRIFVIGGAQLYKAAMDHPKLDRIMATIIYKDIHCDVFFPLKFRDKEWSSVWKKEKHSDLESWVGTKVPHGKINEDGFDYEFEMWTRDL
The experiment is described as follows: Inhibitory activity against Pneumocystis carinii dihydrofolate reductase.

Experiment [3] has as its target T2, Bifunctional dihydrofolate reductase-thymidylate synthase (Toxoplasma gondii, UniProt Q07422).
T2 sequence (Q07422 whole entry): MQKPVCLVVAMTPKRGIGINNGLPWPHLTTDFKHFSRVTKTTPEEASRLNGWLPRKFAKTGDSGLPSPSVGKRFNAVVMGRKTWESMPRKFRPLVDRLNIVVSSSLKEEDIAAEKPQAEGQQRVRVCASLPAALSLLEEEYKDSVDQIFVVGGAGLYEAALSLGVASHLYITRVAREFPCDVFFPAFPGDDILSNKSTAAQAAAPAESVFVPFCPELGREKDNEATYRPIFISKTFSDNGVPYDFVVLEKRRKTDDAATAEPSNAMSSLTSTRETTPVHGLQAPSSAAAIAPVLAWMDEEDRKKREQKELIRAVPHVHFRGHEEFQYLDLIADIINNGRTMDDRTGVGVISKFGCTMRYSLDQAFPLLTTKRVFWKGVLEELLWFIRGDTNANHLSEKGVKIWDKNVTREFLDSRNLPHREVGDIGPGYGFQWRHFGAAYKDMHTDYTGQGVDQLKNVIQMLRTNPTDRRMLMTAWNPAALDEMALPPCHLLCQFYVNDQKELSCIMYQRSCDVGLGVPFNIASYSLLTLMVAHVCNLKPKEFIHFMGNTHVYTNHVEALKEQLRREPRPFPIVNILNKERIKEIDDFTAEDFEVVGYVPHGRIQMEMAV
Nature of the experiment: Inhibitory activity against Toxoplasma gondii dihydrofolate reductase.

The target in experiment [4] is T3, Dihydrofolate reductase (Rattus norvegicus, UniProt Q920D2).
T3 sequence (Q920D2 whole entry): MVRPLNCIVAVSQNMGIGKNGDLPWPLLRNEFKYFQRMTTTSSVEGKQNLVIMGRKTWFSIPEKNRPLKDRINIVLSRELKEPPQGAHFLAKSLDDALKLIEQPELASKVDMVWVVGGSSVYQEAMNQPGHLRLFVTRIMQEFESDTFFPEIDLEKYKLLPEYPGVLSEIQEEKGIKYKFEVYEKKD
Nature of the experiment: Inhibition of rat liver dihydrofolate reductase.

Experiment [5] has as its system CCRF-CEM. Nature of the experiment: Growth inhibition of parental CCRF-CEM cells. It is filed as functional, cell-based. As to conditions: Homo sapiens.
For experiment [6], the system named is CCRF-CEM. Nature of the experiment: Growth inhibition of […], defined mechanisms of MTX resistance during continuous (0-120 h) exposure. The class given is functional, cell-based. As to conditions: Homo sapiens.
The test system of experiment [7] is CCRF-CEM. The experiment is described as follows: Growth inhibition of CCRF-CEM cells resistant to MTX. The class given is functional, cell-based. As to conditions: Homo sapiens.
The subject of experiment [8] is FaDu. Nature of the experiment: Relative growth inhibition of FaDu cells at 9 uM drug concentration and in presence of thymidine and hypoxanthine. It is filed as functional, Homo sapiens.
Experiment [9] relates to FaDu. Nature of the experiment: Relative growth inhibition of FaDu cells in absence of metabolite at 9 uM concentration. It is filed as functional, Homo sapiens.
For experiment [10], the system named is FaDu. The experiment is described as follows: Growth inhibition of FaDu human head and neck squamous cell carcinoma cell lines. The class given is functional, cell-based.
Experiment [11] has as its system FaDu. Nature of the experiment: Relative growth inhibition of FaDu cells at 9 uM drug concentration and in presence of 10 uM Leucovorin. The class given is functional, Homo sapiens.
The test system of experiment [12] is FaDu. Nature of the experiment: Relative growth inhibition of FaDu cells at 9 uM drug concentration and in presence of 40 uM Thymidine. It is filed as functional, Homo sapiens.
For experiment [13], the system named is FaDu. Nature of the experiment: Relative growth inhibition of FaDu cells at 9 uM drug concentration and in presence of 50 uM Hypoxanthine. It is filed as functional, Homo sapiens.
In experiment [14] the target is Thymidylate synthase (Escherichia coli, UniProt C3SWJ7). The experiment is described as follows: Inhibitory activity against Escherichia coli thymidylate synthase.
In experiment [15] the target is Thymidylate synthase (Homo sapiens, UniProt P04818). The experiment is described as follows: Inhibitory activity against human thymidylate synthase.
Experiment [16] relates to CCRF-CEM. Nature of the experiment: Growth inhibition of DHFR-overexpressing cells, defined mechanisms of MTX resistance during continuous (0-120 h) exposure. As to conditions: Homo sapiens. It is filed as functional, cell-based.
Experiment [17] has as its system A253 cell line. Nature of the experiment: Growth inhibition of A253 cell lines. The class given is functional, cell-based. To be noted: Homo sapiens.
Experiment [18] deals with T4, Dihydrofolate reductase (Homo sapiens, UniProt P00374).
T4 sequence (P00374 whole entry): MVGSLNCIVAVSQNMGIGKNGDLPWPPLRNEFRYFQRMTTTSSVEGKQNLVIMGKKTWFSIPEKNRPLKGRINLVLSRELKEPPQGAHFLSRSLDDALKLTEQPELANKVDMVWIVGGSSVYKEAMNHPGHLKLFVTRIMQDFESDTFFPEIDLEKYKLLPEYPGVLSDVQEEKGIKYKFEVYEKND
Description: Inhibitory activity against human dihydrofolate reductase

Molecules are shown by their SMILES. A value given as a limit tells only on which side of the number the result lay.

Chain of Thymidylate synthase (Homo sapiens, UniProt P04818) (P04818 whole entry): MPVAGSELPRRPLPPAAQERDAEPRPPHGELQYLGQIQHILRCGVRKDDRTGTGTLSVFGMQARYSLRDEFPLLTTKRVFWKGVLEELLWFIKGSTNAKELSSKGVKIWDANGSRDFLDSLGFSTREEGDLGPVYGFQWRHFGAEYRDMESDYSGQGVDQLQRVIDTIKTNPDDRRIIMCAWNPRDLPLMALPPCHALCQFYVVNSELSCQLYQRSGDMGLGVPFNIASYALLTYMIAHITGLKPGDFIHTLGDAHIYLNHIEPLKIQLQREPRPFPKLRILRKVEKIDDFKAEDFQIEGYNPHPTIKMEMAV
Chain of Thymidylate synthase (Escherichia coli, UniProt C3SWJ7) (C3SWJ7 whole entry): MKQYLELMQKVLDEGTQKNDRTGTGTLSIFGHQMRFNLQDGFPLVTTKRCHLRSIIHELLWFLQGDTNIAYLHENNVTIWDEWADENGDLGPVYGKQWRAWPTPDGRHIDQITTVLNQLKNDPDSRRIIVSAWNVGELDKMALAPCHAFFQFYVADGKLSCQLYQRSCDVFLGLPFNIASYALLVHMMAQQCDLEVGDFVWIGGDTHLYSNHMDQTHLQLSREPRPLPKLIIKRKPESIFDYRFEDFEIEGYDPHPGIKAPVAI

In the case of `Nc1nc(O)c2c(CNc3ccc(Cl)cc3Cl)c[nH]c2n1`, the Ratio in experiment [1] was more than 7.

As to `Nc1nc(O)c2c(CNc3cc(Cl)ccc3Cl)c[nH]c2n1`, the IC50 in [2] was more than 25 µM; in experiment [3], 0.66 µM; in experiment [4], 25 µM. In addition, the Ratio in experiment [1] is more than 38.

Turning to `Nc1nc(O)c2c(CNc3ccc(C(=O)N[C@@H](CCC(=O)O)C(=O)O)cc3)c[nH]c2n1`, the 50% effective concentration (EC50) in [5] is 0.08 µM; in experiment [6] it was 0.31 µM; in experiment [7], 0.12 µM; in experiment [10], 0.8 µM; in experiment [16], 0.2 µM; in experiment [17] it was 1 µM. The 50% inhibitory concentration (IC50) in experiment [3] was 0.8 µM; in experiment [14], more than 120 µM; in experiment [15], 46 µM; in [18], 10 µM. Besides, the Relative growth amounted to 79 in experiment [8]; 5 in [9]; 64 in experiment [11]; 74 in experiment [12]; 5 in [13].

As for `Nc1nc2[nH]cc(CNc3cccc(Cl)c3)c2c(=O)[nH]1`, the figures for the 50% inhibitory concentration (IC50) in experiment [2] and in [4] were more than 26 µM and 26 µM, respectively.

As to `Nc1nc2[nH]cc(CNc3cc(Cl)cc(Cl)c3)c2c(=O)[nH]1`, the values for the half-inhibitory concentration (IC50) in [3] and in [4] were 4.1 µM and 63 µM, respectively.

`Nc1nc(O)c2c(CNc3cc(Cl)cc(Cl)c3)c[nH]c2n1`: in [1], the Ratio is more than 15.4.

Regarding `COc1cc(NCc2c[nH]c3nc(N)[nH]c(=O)c23)cc(OC)c1`, the figures for the IC50 in experiment [2] and in experiment [4] were more than 20 µM and 20 µM, respectively.

For the molecule `COc1cc(NCc2c[nH]c3nc(N)nc(O)c23)cc(OC)c1`, the Ratio in experiment [1] is more than 8.

In the case of `CN(Cc1cnc2nc(N)nc(N)c2n1)c1ccc(C(=O)N[C@@H](CCC(=O)O)C(=O)O)cc1` [METHOTREXATE], the concentration giving a half-maximal response (EC50) in experiment [17] was determined as 0.019 µM.

With `COc1ccc(NCc2c[nH]c3nc(N)nc(O)c23)c(OC)c1`, the concentration for half-maximal inhibition (IC50) is more than 16 µM in [2] and 16 µM in experiment [4]. Besides, the Ratio in experiment [1] is more than 2.3.

`Nc1nc(O)c2c(CNc3cccc(Cl)c3)c[nH]c2n1`: in experiment [1], the Ratio is more than 7.

In experiment [15], `Nc1nc2[nH]cc(CCc3ccc(C(=O)N[C@@H](CCC(=O)O)C(=O)O)cc3)c2c(=O)[nH]1` [PEMETREXED] yielded an IC50 of 5.7 µM.

With `Nc1nc2[nH]cc(CNc3ccc(Cl)cc3Cl)c2c(=O)[nH]1`, the IC50 is more than 15 µM in experiment [2] and 15 µM in experiment [4].

Regarding `COc1ccc(OC)c(N(C)Cc2c[nH]c3nc(N)[nH]c(=O)c23)c1`, the 50% inhibitory concentration (IC50) in [2] was more than 56 µM; in [3], 10.3 µM; in [4], 56 µM.

Consider `COc1cc(N(C)Cc2c[nH]c3nc(N)nc(O)c23)cc(OC)c1OC`, for which, in experiment [1], the Ratio was more than 2.

Take `COc1cc(N(C)Cc2c[nH]c3nc(N)[nH]c(=O)c23)cc(OC)c1OC`: the half-maximal inhibitory concentration (IC50) was more than 45 µM in experiment [2], 37 µM in [3] and 45 µM in [4].

Regarding `COc1ccc(OC)c(N(C)Cc2c[nH]c3nc(N)nc(O)c23)c1`, the Ratio in experiment [1] was more than 6.

With `COc1ccc(OC)c(NCc2c[nH]c3nc(N)nc(O)c23)c1`, the concentration for a half-maximal effect (EC50) in experiment [5] was 0.23 µM; in [6], 1.53 µM; in experiment [7], 0.46 µM; in [10] it was more than 10 µM; in experiment [16] it was 0.42 µM; in experiment [17], more than 10 µM. In addition, the IC50 was more than 47 µM in experiment [2] and 47 µM in experiment [4]. In addition, the Ratio in [1] was more than 21.

For `COc1cc(OC)cc(N(C)Cc2c[nH]c3nc(N)nc(O)c23)c1`, the figures for the IC50 in experiment [2], in [3] and in experiment [4] were more than 87 µM, 4.2 µM and 87 µM, respectively. The Ratio in experiment [1] is more than 21.

For the molecule `COc1cc(NCc2c[nH]c3nc(N)nc(O)c23)cc(OC)c1OC`, the concentration for half-maximal inhibition (IC50) in experiment [2] is more than 22 µM; in experiment [3] it was 9.3 µM; in [4], 22 µM. Further, in experiment [1], the Ratio was more than 2.4.
